Assay results taken from patent publication US20260224547A1, “COMPOSITIONS COMPRISING ANATABINE AND USES THEREOF” (Philip Morris Products S.A., priority 2021, published 2026).

Experiments:
NRF2 reporter cells = assay: Cell viability measured with ATP assay alongside NRF2 translocation (FIG. 4 to 7)
Text: FIGS. 5A to 5C: bar and line graphs showing NRF2 translocation presented as log 2 fold change compared to vehicle control (bars) and cell viability measured with ATP assay and presented as a percentage of the vehicle control (line) for anatabine (FIG. 5A), dimethyl fumarate (AlfaAesar) (FIG. 5B), and nornicotine (FIG. 5C).
FIGS. 6A to 6C: bar graphs showing NRF2 translocation presented as log 2 fold change compared to vehicle control (bars) and cell viability measured with ATP assay and presented as a percentage of the vehicle control (line) for anatabine (FIG. 6A), dimethyl fumarate (Sigma) (FIG. 6B), and sulforaphane (FIG. 6C).
FIGS. 7A and […]: bar graphs showing NRF2 translocation presented as log 2 fold change compared to vehicle control (bars) and cell viability measured with ATP assay and presented as a percentage of the vehicle control (line) for cotinine (FIG. 7A) and nicotine (FIG. 7B).

[1] = test system: PMA-differentiated THP-1 cell lysates; assay: DIA mass spectrometry proteomics of cell lysates; assay type: cell-based, human; settings: 100, 200, 300, 400 μM for 24 hours; adjusted p-value<0.05
Method: To confirm the increased expression of target genes of NRF2 transcription factor at the protein level, proteins were profiled by untargeted mass spectrometry in PMA-differentiated THP-1 cell lysates after anatabine treatment (100, 200, 300, 400 μM) for 24 hours.
Samples were processed using PREOMICS IST KIT (PreOmics GmbH, Planegg/Martinsried, Germany) as described in the manufacturer's protocol. Briefly, 100 μl of PREOMICS LYSE BUFFER were added to the cells, samples were incubated at 90° C. for 10 min and sonified for 30 sec with a sonifier (Brandson, Danbury, Connecticut, USA) at 10% amplitude. Protein amount was determined using the PIERCE 660 NM PROTEIN ASSAY (Pierce Biotechnology, Rockford, USA) following the manufacturer's protocol. Samples were normalized to 0.5 μg/μl and 40 μg was further processed with PREOMICS IST KIT with a 3 h trypsin digestion. Peptides were purified on the cartridge, dried overnight on a vacuum concentrator (Martin Christ, Germany) and re-suspended in 50 μL of LC SOLUTION (Biognosys AG, Switzerland). 1 μL of iRT reference peptides (Biognosys AG, Switzerland) was added to 19 μL of processed sample. Samples were analysed with an EASY 1000 NANOLC (ThermoFisher Scientific) connected online to a Q-Exactive (ThermoFisher Scientific). […]

## C1=CCC(c2cccnc2)NC1 (racemic) [anatabine, 1,2,3,6-Tetrahydro-2,3′-bipyridine]
NRF2 reporter cells; 250 μM
  cell viability, percentage of the vehicle control: above 85%
NRF2 reporter cells; 500 μM
  cell viability, percentage of the vehicle control: above 85%
NRF2 reporter cells; higher concentrations of the tested range
  cell viability at higher concentrations: high cell viability
[1]
  intracellular protein products of NRF2 target genes HMOX1, GCLM, NQO1 and TXNRD1: significantly expressed
